# Laboratory results: US20220251109A1, “OXAAZAQUINAZOLINE-7(8H)-KETONE COMPOUND, PREPARATION METHOD THEREFOR AND PHARMACEUTICAL APPLICATION THEREOF” (GENFLEET THERAPEUTICS (SHANGHAI) INC., priority 2019, published 2022)
# Where two headings read alike, the source gives them in different places.
# Legend:
# Format in all cases: cell-based, human
# [1] = tested on: NCI-H358 cells (Kras G12C mutation); experiment: Cell proliferation inhibition experiment, 3D model, CellTiter-Glo (NCI-H358); conditions: NCI-H358, 3D sphere plate, 5 days, 2% FBS
# Experimental: (§1) NCI-H358 was a human non-small cell lung cancer cell line with Kras G12C mutation, cultured in 10% FBS RPMI-1640 medium; A549 was a human lung adenocarcinoma cell line with Kras G12S mutation, cultured in 10% FBS F-12K medium. The cells in the logarithmic growth phase was taken, digested with trypsin EDTA, collected and counted, and H358 was adjusted to 1.8E4 cells/ml using 2% FBS RPMI-1640 medium, and A549 was adjusted to 8.9E3 cells/ml using 2% FBS F-12K medium; 800 (45 μl) H358 or 400 (45 μl) A549 cells were seeded in a 384-well sphere plate respectively, cultured overnight to establish a 3D cell model. DMSO was used to prepare 1000× compound 3.16-fold gradient concentration stock solution, and 2% FBS medium was used to dilute 100-fold to 10× compound stock solution. On the second day after cell seeding, 5 μl 10× compound stock solution was added to each cell culture well, the final concentration was 1×, and DMSO content was 0.1%. DMSO was used as the experimental control (control) and 2% FBS medium as the blank control (blank). After the compound and cells were added and cultured for 5 days, 25 μl CellTiter-Glo working solution was added to each well, mixed at 400 rpm and incubated for 30 minutes. After 30 minutes at room temperature, 40 μl of the mixture was transferred to a 384-well plate with a non-transparent white bottom, the luminescence chemiluminescence value was read, and the cells proliferation inhibition rate IR (%)=(RLU control-RLU compound)/(RLU control-RLU blank)×100% was calculated, Prism 6 four-parameter method was used to fit the compound's gradient dilution concentration and the corresponding cell proliferation inhibition rate, and the IC50 value was calculate.
# [2] = tested on: A549 cells (Kras G12S mutation); experiment: Cell proliferation inhibition experiment, 3D model, CellTiter-Glo (A549); conditions: A549, 3D sphere plate, 5 days, 2% FBS
# Experimental: as §1
# [3] = tested on: MIA PaCa-2 cells (Kras G12C mutation); experiment: Cell proliferation inhibition experiment, 3D model, CellTiter-Glo (MIA PaCa-2); conditions: MIA PaCa-2, 3D sphere plate, 5 days, read-out: MIA-PaCa2 IC50
# Experimental: MIA PaCa2 was a human pancreatic cancer cell line with Kras G12C mutation, cultured in 10% FBS+2.5% Horse serum DMEM medium; A549 was a human lung adenocarcinoma cell line with Kras G12S mutation, cultured in 10% FBS F-12K medium. The cells in the logarithmic growth phase were taken, digested with enzyme EDTA, collected, counted and 200 MIA PaCa-2 or 400 A549 cells were seeded in a 384-well sphere plate respectively, cultured overnight to establish a 3D cell model. DMSO was used to prepare 1000× compound 3.16-fold gradient concentration stock solution, and medium was used to dilute 100-fold to 10× compound stock solution. On the second day after cell seeding, 10× compound stock solution was added to each cell culture well, the final concentration was 1×, and DMSO content was 0.1%. DMSO was used as an experimental control (control), medium as the blank control (blank). After the compound and cells were added and cultured for 5 days, 30 μl CellTiter-Glo working solution was added to each well, mixed and incubated for 30 minutes. After 30 minutes at room temperature, 40 μl of the mixture was transferred to a 384-well plate with a non-transparent white bottom, the luminescence chemiluminescence value was read, and the cells proliferation inhibition rate IR (%)=(RLU control-RLU compound)/(RLU control-RLU blank)×100% was calculated, XLFit four-parameter method was used to fit the compound's gradient dilution concentration and the corresponding cell proliferation inhibition rate, and the IC50 value was calculate.
# [4] = Homo sapiens, MIA PaCa-2, 120 h
SMILES,"IC50 ([1]; Homo sapiens, NCI-H358, 120 h)","IC50 ([2]; Homo sapiens, A549, 120 h)","IC50 [3, 4]",IC50 [1],IC50 [2],IC50 [3]
"C=CC(=O)N1CCN2c3nc(=O)n(C4CC4)c4cc(-c5c(C)ccc6[nH]ncc56)c(Cl)c(c34)OC[C@@H]2C1 (single isomer, unassigned) [Compound Z17-2]",37 nM,12800 nM,33 nM,,,
"C=CC(=O)N1CCN2c3nc(=O)n(-c4c(C)ccnc4C(C)C)c4cc(-c5c(C)ccc6[nH]ncc56)c(Cl)c(c34)OC[C@@H]2C1 (atropisomer, axis not shown) [Compound Z26-2-2]",,,,2 nM,> 10000 nM,3 nM
"C=CC(=O)N1CCN2c3nc(=O)n(-c4c(C)ccnc4C4CC4)c4nc(-c5ccccc5F)c(Cl)c(c34)OC[C@H]2C1 (single isomer, unassigned) [Compound Z102-2]",,,,27 nM,12200 nM,83 nM
"C=CC(=O)N1CCN2c3nc(=O)n(-c4c(C)ccnc4C(C)C)c4cc(-c5c(O)cccc5F)c(Cl)c(c34)OC[C@H]2C1 (single isomer, unassigned) [Compound Z29-4]",,,,44 nM,> 10000 nM,358 nM
"C=CC(=O)N1CCN2c3nc(=O)n(-c4c(C)ccnc4C(C)C)c4cc(-c5c(C)ccc6[nH]ncc56)c(Cl)c(c34)OC[C@H]2C1 (single isomer, unassigned) [Compound Z30-2]",,,,2 nM,20700 nM,5 nM
"C=CC(=O)N1CCN2c3nc(=O)n(-c4ccccc4C(C)C)c4cc(-c5c(C)ccc6[nH]ncc56)c(Cl)c(c34)OC[C@@H]2C1 (single isomer, unassigned) [Compound Z20-4]",,,,26 nM,2670 nM,51 nM
"C=CC(=O)N1CCN2c3nc(=O)n(-c4c(C)ccnc4C4CC4)c4nc(-c5ccccc5F)c(Cl)c(c34)OC[C@H]2C1 (single isomer, unassigned) [Compound Z102-1]",,13300 nM,,4 nM,,4 nM
"C=CC(=O)N1CCN2c3nc(=O)n(-c4c(C)ncnc4C(C)C)c4nc(-c5c(O)cccc5F)c(F)c(c34)OC[C@H]2C1 (single isomer, unassigned) [Compound Z101-2]",,,,3 nM,> 10000 nM,3 nM
"C=CC(=O)N1CCN2c3nc(=O)n(-c4c(C)ccnc4C(C)C)c4cc(-c5c(O)cccc5F)cc(c34)OC[C@@H]2C1 (atropisomer, axis not shown) [Compound Z15-2]",,,,149 nM,29800 nM,261 nM
"C=CC(=O)N1CCN2c3nc(=O)n(-c4c(C)ccnc4C(C)C)c4cc(-c5c(C)ccc6[nH]ncc56)c(Cl)c(c34)OC[C@H]2C1 (atropisomer, axis not shown) [Compound Z30-2-2]",,,,3 nM,> 10000 nM,4 nM
"C=CC(=O)N1CCN2c3nc(=O)n(-c4c(C)ccnc4C(C)C)c4cc(-c5c(O)cccc5F)c(Cl)c(c34)OC[C@H]2C1 (single isomer, unassigned) [Compound Z29-2]",,,,5 nM,> 10000 nM,6 nM
"[2H]C([2H])([2H])Oc1cccc(F)c1-c1nc2c3c(nc(=O)n2-c2c(C)ccnc2C(C)C)N2CCN(C(=O)C=C)C[C@@H]2COc3c1F (single isomer, unassigned) [Compound Z100-1]",,19700 nM,4 nM,2 nM,,
"C=CC(=O)N1CCN2c3nc(=O)n(-c4ccccc4C(C)C)c4cc(-c5c(C)ccc6[nH]ncc56)c(Cl)c(c34)OC[C@@H]2C1 (single isomer, unassigned) [Compound Z20-2]",,,,46 nM,5950 nM,173 nM
"C=CC(=O)N1CCN2c3nc(=O)n(-c4c(C)ccnc4C(C)C)c4cc(-c5c(O)cccc5F)cc(c34)OC[C@@H]2C1 (single isomer, unassigned) [Compound Z15-1]",,,,17 nM,22200 nM,20 nM
"C=CC(=O)N1CCN2c3nc(=O)n(-c4c(C)ccnc4C(C)C)c4cc(-c5c(C)ccc6[nH]ncc56)c(Cl)c(c34)OC[C@H]2C1 (single isomer, unassigned) [Compound Z30-1]",,,,65 nM,25000 nM,78 nM

# Other lines, results leading:
"IC50 ([1]; Homo sapiens, NCI-H358, 120 h)","IC50 ([2]; Homo sapiens, A549, 120 h)","IC50 [3, 4]",IC50 [1],IC50 [2],IC50 [3],SMILES
7 nM,> 10000 nM,9 nM,,,,C=CC(=O)N1CCN2c3nc(=O)n(-c4c(C)ccnc4C(C)C)c4nc(-c5ccccc5OC(F)(F)F)c(Cl)c(c34)OC[C@@H]2C1 [Compound Z64]
,12600 nM,,7 nM,,14 nM,C=CC(=O)N1CCN2c3nc(=O)n(-c4c(C)ccnc4C(C)C)c4cc(-c5c(O)cccc5F)c(Cl)c(c34)OC[C@H]2C1 [Compound Z29]
,> 10000 nM,,3 nM,,9 nM,C=CC(=O)N1CCN2c3nc(=O)n(-c4c(C)ccnc4C(C)C)c4nc(-c5cccc(F)c5F)c(Cl)c(c34)OC[C@@H]2C1 [Compound Z47]
3 nM,> 10000 nM,9 nM,,,,C=CC(=O)N1CCN2c3nc(=O)n(-c4c(C)ccnc4C(C)C)c4nc(-c5c(F)cccc5F)c(Cl)c(c34)OC[C@@H]2C1 [Compound Z68]
4 nM,> 30000 nM,7 nM,,,,C=CC(=O)N1CCN2c3nc(=O)n(-c4c(C)ncnc4C4CC4)c4nc(-c5cccc(F)c5F)c(Cl)c(c34)OC[C@H]2C1 [Compound Z106]
47 nM,12300 nM,25 nM,,,,C=CC(=O)N1CCN2c3nc(=O)n(-c4c(C)ccnc4C(C)C)c4cc(-c5c(O)cccc5F)c(Cl)c(c34)OC[C@@H]2C1 [Compound Z31]
63 nM,22900 nM,55 nM,,,,C=CC(=O)N1CCN2c3nc(=O)n(C4CC4)c4cc(-c5c(C)ccc6[nH]ncc56)c(Cl)c(c34)OC[C@@H]2C1 [Compound Z17]
41 nM,> 10000 nM,29 nM,,,,"C=CC(=O)N1CCN2c3nc(=O)n(-c4c(C)ccnc4C(C)C)c4cc(-c5c(O)cccc5F)cc(c34)OC[C@H]2C1 [Compound Z16, (R)-2-acryloyl-10-(2-fluoro-6-hydroxyphenyl)-8-(2-isopropyl-4-methylpyridin-3-yl)-1,2,3,4,13,13a-hexahydropyrazino[2′,1′:3,4][1,4]oxazepine[5,6,7-de]quinazolin-7 (8H)-one]"
1 nM,> 10000 nM,2 nM,,,,C=CC(=O)N1CCN2c3nc(=O)n(-c4c(C(C)C)ncnc4C(C)C)c4nc(-c5c(O)cccc5F)c(F)c(c34)OC[C@H]2C1 [Compound Z98]
5 nM,3760 nM,15 nM,,,,C=CC(=O)N1CCN2c3nc(=O)n(-c4ccccc4C(C)C)c4cc(-c5c(C)ccc6[nH]ncc56)c(Cl)c(c34)OC[C@@H]2C1 [Compound Z20]
7 nM,> 30000 nM,18 nM,,,,C=CC(=O)N1CCN2c3nc(=O)n(-c4c(C)ncnc4C4CC4)c4nc(-c5c(O)cccc5F)c(Cl)c(c34)OC[C@H]2C1 [Compound Z103]
6 nM,> 10000 nM,26 nM,,,,C=CC(=O)N1CCN2c3nc(=O)n(-c4c(C)ccnc4C(C)C)c4nc(-c5cc(Cl)ccc5F)c(Cl)c(c34)OC[C@@H]2C1 [Compound Z59]
9 nM,> 10000 nM,26 nM,,,,C=CC(=O)N1CCN2c3nc(=O)n(-c4c(C)ccnc4C(C)C)c4nc(-c5cc(F)ccc5O)c(Cl)c(c34)OC[C@@H]2C1 [Compound Z55]
,,444 nM,,,,C=CC(=O)N1CCN2c3nc(=O)n(-c4cccnc4C(C)C)c4cc(-c5c(C)ccc6[nH]ncc56)c(Cl)c(c34)OC[C@@H]2C1 [Compound Z39]
